Experimental data published in patent US20050069496A1, “Methods of screening, determining, developing and utilizing negative cross resistance toxins” (priority 2001, published 2005).
Like-named read-outs stand apart in the source and are kept apart here. Marks after values point to notes of the source that are not given here.

Columns and labels:
[1] = test system: Mycosphaeralla graminicola Wild type and Tri R1 resistant strains; assay: Cross-resistance comparison of resistant and wild type fungal lines; type: cell-based; details: for Resistance Ratio: Tri R1 resistant versus wild type; for Resistance Type: compared to resistance to Triadimenol, not tested statistically; for Possible Resistance Type: after Bonferroni correction
Source text: In one embodiment, large-scale screens are utilized to determine NCR toxins that can be used against fungicide resistance. For such a screen, there will be one of three outcomes: (1) positive cross-resistance, (2) neutral (no cross-resistance), and (3) negative cross-resistance. Table 3 illustrates the EC50 for each toxin as given on two lines of Mycosphaeralla graminicola. The EC50 is the effective concentration that will kill fifty percent of the organisms in a test population. One line is Triadimenol susceptible and the other line is resistant to this compound. An estimate is made of the nature of resistance of these two lines to nine other toxins. The resistance is defined as (i) positive cross-resistance, (ii) negative cross-resistance or (iii) no cross-resistance (neutral) as compared to the resistance to Triadimenol (1RS,2RS;1RS,2RS)-1-(4chlorophenoxy)-3,3-dimethyl-1-(1H-1,2,4-trizol-1-yl) butan-1-o. Such a comparison is useful in a large-scale screen for NCR toxins for fungicides.
Three of the compounds listed in Table 3 are indicated as potential NCR toxins (Triflumizole, Ferarimol, and Nuarimol). In one embodiment, screening resources are used efficiently, i.e. the potential for identifying false-positives is minimized, by focusing on investigating potential NCR toxins through a test with a correction factor, such as a Bonferroni correction. Alternatively, other correction factors can be used including, but not limited to, Duncan's method. […] Where differential toxicity occurs between the two fungal lines on a given toxin, a difference in toxicity between the two lines is determined. If the fungal line that was resistant to the first toxin (e.g. Triadimenol) is now more susceptible to the new toxin (e.g. Triflumizole, Ferarimol, or Nuarimol) potential NCR toxin pairs are identified.
Differences between toxins, in terms of NCR activity, may be indicated where such differences may not truly exist (type I error in statistical hypothesis testing). In the present example, the confidence interval is extended using, for example, Bonferroni correction, which is needed to control for false positives in detection of NCR toxins in large-screen tests. A NCR factor is declared if the second toxin requires a lower dosage to kill the resistant line as compared to the wild type fungal line or lines. The consequences of a failure to use Bonferroni correction normally results in higher numbers of false positives in a large-scale screen. Toxins that are selected on the basis of no correction may still be considered as putative NCR toxins, but deserving less consideration than those identified using the correction method. A Bonferroni correction is thus performed on the three putative NCR toxins (and the reference toxin) to determine if one of the toxins is a NCR factor.
Table 4 illustrates the Bonferroni corrected data (from Table 3 above) of the reference compound (Triadimenol) and the three putative NCR toxins for fungicide resistance. The correction was made based on four compounds tested, each with minimally five doses to calculate the effective concentration fifty (EC50).

[2] = test system: Canton-S (DDT susceptible flies) and para^tsl (DDT resistant flies); assay: Initial screen of DDT and 8 pyrethroids, Canton-S versus para^tsl flies; type: in vivo, Drosophila melanogaster; details: for Fly Line Preferentially Killed by the Toxin: across the doses
Description: A test was conducted utilizing an initial screen of DDT and 8 pyrethroids against Canton-S (DDT susceptible flies) and para^tsl (DDT resistant flies). […]

[3] = biological target: TF-FVIIa complex (Homo sapiens, UniProt P08709); details: Inhibitor concentration ± standard error; read-out: FX activation (IC50); cited from earlier work
Sequence of TF-FVIIa complex (P08709 213-466 limits assumed): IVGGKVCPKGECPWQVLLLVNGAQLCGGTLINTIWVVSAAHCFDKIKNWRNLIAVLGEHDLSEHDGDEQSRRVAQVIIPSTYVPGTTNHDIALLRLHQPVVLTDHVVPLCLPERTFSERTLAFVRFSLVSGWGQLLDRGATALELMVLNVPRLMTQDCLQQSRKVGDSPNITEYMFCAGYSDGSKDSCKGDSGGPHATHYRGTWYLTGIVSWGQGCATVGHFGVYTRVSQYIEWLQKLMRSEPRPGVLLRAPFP
Sequence of TF-FVIIa complex (P08709 61-212 limits assumed): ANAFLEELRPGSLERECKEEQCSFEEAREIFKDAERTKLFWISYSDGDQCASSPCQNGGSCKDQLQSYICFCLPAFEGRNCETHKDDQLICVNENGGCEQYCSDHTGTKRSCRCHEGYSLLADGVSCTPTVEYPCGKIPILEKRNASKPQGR
Sequence of TF-FVIIa complex (P13726 33-295 partner): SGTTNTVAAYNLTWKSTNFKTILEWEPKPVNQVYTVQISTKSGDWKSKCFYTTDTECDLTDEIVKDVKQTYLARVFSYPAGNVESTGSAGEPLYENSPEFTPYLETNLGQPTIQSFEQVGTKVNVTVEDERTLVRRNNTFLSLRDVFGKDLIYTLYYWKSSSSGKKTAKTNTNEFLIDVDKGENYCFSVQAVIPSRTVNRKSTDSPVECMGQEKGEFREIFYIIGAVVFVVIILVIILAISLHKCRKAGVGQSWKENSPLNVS

[4] = test system: heterozygous fly lines; details: stated as known; cited from earlier work
[5] = test system: para^tsl flies; assay: Fly mortality bioassay, para^tsl; type: in vivo, Drosophila melanogaster; details: for Resistance Ratio: Para^tsl
Description: (§1) A test was conducted utilizing an initial screen of DDT and 8 pyrethroids against Canton-S (DDT susceptible flies) and para^tsl (DDT resistant flies).
(§2) As a further step in the test, heterozygotes were tested with either deltamethrin or DDT.

[6] = test system: Canton-S flies; assay: Fly mortality bioassay, Canton-S; type: in vivo, Drosophila melanogaster; details: for Resistance Ratio: Canton-S, LD50 over LD50 of para^tsl males
Description: as §1, §2

[7] = test system: heterozygous fly lines; assay: Fly mortality bioassay, heterozygotes; type: in vivo, Drosophila melanogaster
Description: as §2
An additional test was conducted to determine if DDT and deltamethrin applied at the same time killed the heterozygotes.
FIG. 17 graphically illustrates the application of deltamethrin by itself 220, the application of DDT by itself 222, and the application of both deltamethrin and DDT at the same time 224 to para^tsl flies, Canton-S flies, and heterozygotes.

[8] = test system: Drosophila sodium channel, para, resistance mutation line; details: mutation not observed in nature; cited from earlier work

With `C[Si](Cn1cncn1)(c1ccc(F)cc1)c1ccc(F)cc1` [Flusilazole] as the molecule, how does the “Resistance Ratio” value [1] read?
Its value is 4.2.

And the “Resistance Type” value [1]?
The value was “Positive”.

For `CC(C)(C)C(O)(CCc1ccc(Cl)cc1)Cn1cncn1` (stereo not shown) [Tebuconazole], which “Resistance Ratio” value [1] is on record?
The value was 3.3.

What about the “Resistance Type” value [1] of the same molecule?
The value was “Positive”.

Which results are given for `O=c1c2cc(F)ccc2nc(-n2cncn2)n1-c1ccc(Cl)cc1Cl` [Fluquinconazole]?
Resistance Ratio [1]: 0.4; Resistance Type [1]: Negative

For `CCCN(CCOc1c(Cl)cc(Cl)cc1Cl)C(=O)n1ccnc1` [Prochloraz], which “Resistance Ratio” value [1] is on record?
The value was 3.3.

And the “Resistance Type” value [1]?
Its value is “Positive”.

For `CC1(C)[C@H](/C=C(\Cl)C(F)(F)F)[C@@H]1C(=O)O[C@@H](C#N)c1cccc(Oc2ccccc2)c1` [PP321], which “Fly Line Preferentially Killed by the Toxin” value (from here on “Fly Line Preferentially Killed”) [2] is on record?
Its value is “Neither”.

What does the source list for `CCCOC/C(=N\c1ccc(Cl)cc1C(F)(F)F)n1ccnc1` [Triflumizole]?
Resistance Ratio [1]: 0.3; Possible Resistance Type [1]: Neutral (n.s.)†; Resistance Type [1]: Negative

For `CC1(C)C(C=C(Cl)Cl)C1C(=O)OCc1cccc(Oc2ccccc2)c1` (stereo not shown) [Permethrin], which “Fly Line Preferentially Killed” value [2] is on record?
Its value is “Para^tsl”.

And the “Fly Line Preferentially Killed” value ([2]; listed as permethrin)?
Its value is “more toxic to para^tsl flies than to Canton-S flies”.

With `C=CCOC(Cn1ccnc1)c1ccc(Cl)cc1Cl` (stereo not shown) [Imazalil] as the molecule, how does the “Resistance Ratio” value [1] read?
Its value is 5.0.

What about the “Resistance Type” value [1] of the same molecule?
Its value is “Positive”.

With `Cc1c(F)c(F)c(COC(=O)[C@H]2[C@@H](/C=C(\Cl)C(F)(F)F)C2(C)C)c(F)c1F` [PP993] as the molecule, how does the “Fly Line Preferentially Killed” value [2] read?
Its value is “Canton-S”.

Which “Fly Line Preferentially Killed” value [2] does the source give for `CC(C)[C@H](C(=O)O[C@H](C#N)c1cccc(Oc2ccccc2)c1)c1ccc(Cl)cc1` [Asana] here?
Its value is “Neither”.

For `OC(c1ccc(Cl)cc1)(c1cncnc1)c1ccccc1Cl` (stereo not shown) [Ferarimol], which “Resistance Ratio” value [1] is on record?
Its value is 0.3.

What about the “Possible Resistance Type” value [1] of the same molecule?
The value was “Negative”.

What about the “Resistance Type” value [1] of the same molecule?
The value was “Negative”.

For `CC(C)=CC1C(C(=O)OCc2coc(Cc3ccccc3)c2)C1(C)C` (stereo not shown) [Resmethrin], which “Fly Line Preferentially Killed” value [2] is on record?
The value was “Para^tsl”.

With “consensus sequence from the hard randomization, C (MEEWEVLCWTWETCERGEGQ), Z-domain fusion [C-Z]” as the molecule, how does the IC50 [3] read?
The IC50 was 5.9 ± 0.9 nM.

With `CC(C)(C)C(O)C(Oc1ccc(Cl)cc1)n1cncn1` (stereo not drawn) [Triadimenol, (1RS,2RS;1RS,2RS)-1-(4chlorophenoxy)-3,3-dimethyl-1-(1H-1,2,4-trizol-1-yl) butan-1-o] as the molecule, how does the “Resistance Ratio” value [1] read?
The value was 31.

For `CC(Cc1ccc(C(C)(C)C)cc1)CN1C[C@@H](C)O[C@@H](C)C1` (stereo partly shown) [Fenpropimorph], which “Resistance Ratio” value [1] is on record?
Its value is 0.9.

What about the “Resistance Type” value [1] of the same molecule?
The value was “Neutral”.

With `Clc1ccc(C(c2ccc(Cl)cc2)C(Cl)(Cl)Cl)cc1` [DDT] as the molecule, how does the Resistance of heterozygotes [4] read?
The Resistance of heterozygotes was “heterozygotes are resistant to DDT”.

And the “Percent Dead Para^tsl” value ([5]; Dose 0.2)?
The value was 13.3%.

What about the “Percent Dead Para^tsl” value ([5]; Dose 0.5) of the same molecule?
Its value is 0%.

What about the “Percent Dead Para^tsl” value ([5]; Dose 1) of the same molecule?
The value was 0%.

And the “Percent Dead Para^tsl” value ([5]; Dose 2)?
The value was 3.3%.

What about the “Percent Dead Para^tsl” value ([5]; Dose 5) of the same molecule?
Its value is 6.7%.

What about the “Percent Dead Para^tsl” value ([5]; Dose 8) of the same molecule?
The value was 23.3%.

And the “Percent Dead Para^tsl” value ([5]; Dose 10)?
The value was 13.3%.

And the “Percent Dead Para^tsl” value ([5]; Dose 15)?
The value was 8.3%.

What about the “Percent Dead Para^tsl” value ([5]; Dose 20) of the same molecule?
The value was 6.7%.

What about the “Percent Dead Cantons-S” value ([6]; Dose 0.2) of the same molecule?
The value was 11.7%.

And the “Percent Dead Cantons-S” value ([6]; Dose 0.5)?
Its value is 8.3%.

What about the “Percent Dead Cantons-S” value ([6]; Dose 1) of the same molecule?
The value was 6.7%.

And the “Percent Dead Cantons-S” value ([6]; Dose 2)?
The value was 15.0%.

What about the “Percent Dead Cantons-S” value ([6]; Dose 5) of the same molecule?
Its value is 35.0%.

And the “Percent Dead Cantons-S” value ([6]; Dose 8)?
The value was 48.3%.

And the “Percent Dead Cantons-S” value ([6]; Dose 10)?
The value was 43.3%.

What about the “Percent Dead Cantons-S” value ([6]; Dose 15) of the same molecule?
Its value is 75.0%.

And the “Percent Dead Cantons-S” value ([6]; Dose 20)?
Its value is 71.7%.

What about the “Fly Line Preferentially Killed” value [2] of the same molecule?
Its value is “Canton-S”.

With `C=CCC1=C(C)C(OC(=O)C2C(C=C(C)C)C2(C)C)CC1=O` [D-trans allethrin] as the molecule, how does the “Fly Line Preferentially Killed” value [2] read?
Its value is “Neither”.

With `CC1(C)[C@H](C(=O)O[C@H](C#N)c2cccc(Oc3ccccc3)c2)[C@@H]1C=C(Br)Br` [Deltamethrin] as the molecule, how does the “Resistance Ratio” value ([7]; Heterozygotes, Female, LD50 over LD50 of para^tsl males) read?
Its value is 21.5.

And the Resistance of heterozygotes ([7]; from Table 8)?
The Resistance of heterozygotes was “resistant to deltamethrin and resistance is dominant”.

And the “Percent Dead Para^tsl” value ([5]; Dose 0.2)?
Its value is 98.3%.

What about the “Percent Dead Para^tsl” value ([5]; Dose 0.5) of the same molecule?
The value was 100%.

And the “Percent Dead Para^tsl” value ([5]; Dose 1)?
The value was 85.0%.

And the “Percent Dead Para^tsl” value ([5]; Dose 2)?
The value was 100%.

What about the “Percent Dead Para^tsl” value ([5]; Dose 5) of the same molecule?
Its value is 100%.

And the “Percent Dead Para^tsl” value ([5]; Dose 8)?
The value was 100%.

And the “Percent Dead Para^tsl” value ([5]; Dose 10)?
The value was 98.3%.

What about the “Percent Dead Para^tsl” value ([5]; Dose 15) of the same molecule?
Its value is 100%.

And the “Percent Dead Para^tsl” value ([5]; Dose 20)?
Its value is 100%.

And the “Resistance Ratio” value ([5]; Female, LD50 over LD50 of para^tsl males)?
Its value is 1.4.

And the “Resistance Ratio” value ([5]; Male, denominator line)?
Its value is 1.0*.

What about the “Resistance Ratio” value ([6]; Female) of the same molecule?
The value was 24.7.

And the “Resistance Ratio” value ([6]; Male)?
The value was 9.9.

And the “Percent Dead Cantons-S” value ([6]; Dose 0.2)?
Its value is 31.7%.

And the “Percent Dead Cantons-S” value ([6]; Dose 0.5)?
Its value is 56.7%.

And the “Percent Dead Cantons-S” value ([6]; Dose 1)?
The value was 26.7%.

What about the “Percent Dead Cantons-S” value ([6]; Dose 2) of the same molecule?
The value was 93.3%.

What about the “Percent Dead Cantons-S” value ([6]; Dose 5) of the same molecule?
Its value is 100%.

What about the “Percent Dead Cantons-S” value ([6]; Dose 8) of the same molecule?
Its value is 96.7%.

And the “Percent Dead Cantons-S” value ([6]; Dose 10)?
The value was 98.3%.

What about the “Percent Dead Cantons-S” value ([6]; Dose 15) of the same molecule?
The value was 100%.

And the “Percent Dead Cantons-S” value ([6]; Dose 20)?
Its value is 98.3%.

And the “Fly Line Preferentially Killed” value [2]?
The value was “Para^tsl”.

What about the “Fly Line Preferentially Killed” value ([2]; listed as deltamethrin) of the same molecule?
Its value is “more toxic to para^tsl flies than to Canton-S flies”.

And the “Preferential killing when tested by individual doses” value ([2]; individual doses)?
Its value is “preferentially killed para^tsl flies”.

What does the source list for `OC(c1ccc(F)cc1)(c1cncnc1)c1ccccc1Cl` (stereo not shown) [Nuarimol]?
Resistance Ratio [1]: 0.4; Possible Resistance Type [1]: Negative; Resistance Type [1]: Negative

With `CC1(C)C(C=C(Cl)Cl)C1C(=O)OC(C#N)c1ccc(F)c(Oc2ccccc2)c1` (stereo not shown) [Tempo] as the molecule, how does the “Fly Line Preferentially Killed” value [2] read?
Its value is “Para^tsl”.

B1: AaIT: a protein isolated from Scorpion toxin (protein, UniProt P01497 19-88, looked up)
Beta-insect excitatory toxin 1: KKNGYAVDSSGKAPECLLSNYCNNECTKVHYADKGYCCLLSCYCFGLNDDKKVLEISDTRKSYCDTTIIN
With B1 as the molecule, how does the “NCR in a resistance mutation line” value [8] read?
The value was “no NCR”.
